From patent US4269717A, “Boiler additives for oxygen scavenging” (priority 1980, dated 1981)

What was measured:
[1] = Carbohydrazide vs. hydrazine in oxygen removal, once-through apparatus (Table III); conditions: for % O2 Removal / Final O2: initial O2 7.7 ppm, 227-239° F., pH about 10.5
Method: A once-through experimental apparatus for simulating boiler water transport was utilized in this example. Water temperature in this example was maintained at about 227°-239° F. and pH at about 10.5.

[2] = Carbohydrazide low temperature hydrolysis (Table V); assay type: physicochemical; design: Hydrazine By Hydrolysis: unit not given here; conditions: for Hydrazine By Hydrolysis / Percent Hydrolysis / ppm Hydrazine: 1,000 ppm
Method: Low temperature hydrolysis studies of carbohydrazide were carried out using reagent grade carbohydrazide containing approximately 2.7±0.1% hydrazine as an impurity. A 1,000 ppm carbohydrazide solution and a 100 ppm hydrazine solution were prepared with deaerated, deionized water. Half of the carbohydrazide solution was adjusted to pH 10.2 with sodium hydroxide and the other half was left at its original pH of 6.9. The solutions were poured into Nessler tubes to overflowing and sealed with stoppers fitted with hypodermic needles to allow pressure release with minimum air contact. Four samples of both of the carbohydrazide solutions and two samples of the hydrazine control were stored at varying temperatures for varying periods of time, all as reported in Table V below.

Solubility in water = assay type: physicochemical
[3] = pH 6.9, Room Temp. (77° F.), 2 days
[4] = pH 6.9, Room Temp. (77° F.), 4 days
[5] = pH 6.9, Room Temp. (77° F.), 6 days
[6] = pH 10.2, Room Temp. (77° F.), 2 days
[7] = pH 10.2, Room Temp. (77° F.), 4 days
[8] = pH 10.2, Room Temp. (77° F.), 6 days

NNC(=O)NN [Carbohydrazide, N, N' diaminourea]
% O2 Removal ([1]; ppm scavenger/ppm O2 0.05/1): 14.3%
Final O2 ([1]; ppm scavenger/ppm O2 0.05/1): 6.60 ppm
% O2 Removal ([1]; ppm scavenger/ppm O2 0.5/1): 57.4%
Final O2 ([1]; ppm scavenger/ppm O2 0.5/1): 3.28 ppm
% O2 Removal ([1]; ppm scavenger/ppm O2 5.0/1): 98.7%
Final O2 ([1]; ppm scavenger/ppm O2 5.0/1): 0.10 ppm
Amount needed for oxygen removal achieved with a given concentration of hydrazine ([1]; vs hydrazine, Table III): half as much
Hydrolysis at 120° F. ([2]; 120° F.): no hydrolysis occured
Hydrolysis above the original free hydrazine level ([2]; 180° F.): 3%
Hydrazine By Hydrolysis ([2]; pH 6.9, 120° F., 2 days): 0
Percent Hydrolysis ([2]; pH 6.9, 120° F., 2 days): 2.7%
ppm Hydrazine ([2]; pH 6.9, 120° F., 2 days): 18.9 ppm
Hydrazine By Hydrolysis ([2]; pH 6.9, 120° F., 4 days): 0
Percent Hydrolysis ([2]; pH 6.9, 120° F., 4 days): 2.6%
ppm Hydrazine ([2]; pH 6.9, 120° F., 4 days): 18.8 ppm
Hydrazine By Hydrolysis ([2]; pH 6.9, 120° F., 6 days): 0
Percent Hydrolysis ([2]; pH 6.9, 120° F., 6 days): 2.6%
ppm Hydrazine ([2]; pH 6.9, 120° F., 6 days): 18.3 ppm
Hydrazine By Hydrolysis ([2]; pH 6.9, 180° F., 2 days): 1.3
Percent Hydrolysis ([2]; pH 6.9, 180° F., 2 days): 4.0%
ppm Hydrazine ([2]; pH 6.9, 180° F., 2 days): 28.4 ppm
Hydrazine By Hydrolysis ([2]; pH 6.9, 180° F., 4 days): 2.3
Percent Hydrolysis ([2]; pH 6.9, 180° F., 4 days): 5.0%
ppm Hydrazine ([2]; pH 6.9, 180° F., 4 days): 35.4 ppm
Hydrazine By Hydrolysis ([2]; pH 6.9, 180° F., 6 days): 3.0
Percent Hydrolysis ([2]; pH 6.9, 180° F., 6 days): 5.7%
ppm Hydrazine ([2]; pH 6.9, 180° F., 6 days): 40.2 ppm
Hydrazine By Hydrolysis [2, 3]: 0
Percent Hydrolysis [2, 3]: 2.8%
ppm Hydrazine [2, 3]: 19.7 ppm
Hydrazine By Hydrolysis [2, 4]: 0
Percent Hydrolysis [2, 4]: 2.7%
ppm Hydrazine [2, 4]: 19.1 ppm
Hydrazine By Hydrolysis [2, 5]: 0
Percent Hydrolysis [2, 5]: 2.6%
ppm Hydrazine [2, 5]: 18,7 ppm
Hydrazine By Hydrolysis ([2]; pH 6.9, time 0): 0
Percent Hydrolysis ([2]; pH 6.9, time 0): 2.7%
ppm Hydrazine ([2]; pH 6.9, time 0): 19.0 ppm
Hydrazine By Hydrolysis ([2]; pH 10.2, 120° F., 2 days): 0
Percent Hydrolysis ([2]; pH 10.2, 120° F., 2 days): 2.8%
ppm Hydrazine ([2]; pH 10.2, 120° F., 2 days): 20.0 ppm
Hydrazine By Hydrolysis ([2]; pH 10.2, 120° F., 4 days): 0
Percent Hydrolysis ([2]; pH 10.2, 120° F., 4 days): 2.8%
ppm Hydrazine ([2]; pH 10.2, 120° F., 4 days): 19.8 ppm
Hydrazine By Hydrolysis ([2]; pH 10.2, 120° F., 6 days): 0
Percent Hydrolysis ([2]; pH 10.2, 120° F., 6 days): 2.7%
ppm Hydrazine ([2]; pH 10.2, 120° F., 6 days): 19.3 ppm
Hydrazine By Hydrolysis ([2]; pH 10.2, 180° F., 2 days): 1.4
Percent Hydrolysis ([2]; pH 10.2, 180° F., 2 days): 4.1%
ppm Hydrazine ([2]; pH 10.2, 180° F., 2 days): 29.0 ppm
Hydrazine By Hydrolysis ([2]; pH 10.2, 180° F., 4 days): 2.1
Percent Hydrolysis ([2]; pH 10.2, 180° F., 4 days): 4.8%
ppm Hydrazine ([2]; pH 10.2, 180° F., 4 days): 34.2 ppm
Hydrazine By Hydrolysis ([2]; pH 10.2, 180° F., 6 days): 2.7
Percent Hydrolysis ([2]; pH 10.2, 180° F., 6 days): 5.4%
ppm Hydrazine ([2]; pH 10.2, 180° F., 6 days): 38.6 ppm
Hydrazine By Hydrolysis [2, 6]: 0
Percent Hydrolysis [2, 6]: 2.8%
ppm Hydrazine [2, 6]: 20.2 ppm
Hydrazine By Hydrolysis [2, 7]: 0.1
Percent Hydrolysis [2, 7]: 2.9%
ppm Hydrazine [2, 7]: 20.5 ppm
Hydrazine By Hydrolysis [2, 8]: 0
Percent Hydrolysis [2, 8]: 2.8%
ppm Hydrazine [2, 8]: 20.1 ppm
Hydrazine By Hydrolysis ([2]; pH 10.2, time 0): 0
Percent Hydrolysis ([2]; pH 10.2, time 0): 2.7%
ppm Hydrazine ([2]; pH 10.2, time 0): 19.1 ppm
pH dependence of hydrolysis values ([2]; pH range of 7-10): did not vary significantly
Hydrolysis at room temperature ([2]; room temperature): no hydrolysis occured
Solubility in water (Solubility in water): freely soluble in water
